Assay [1] relates to BRCA2 mutant ovarian cancer cell line PEO1. Kind of assay: 7-day CellTiter-Glo (CTG) cell viability and synergy assay. The assay is classed as cell-based. The note with it: for EC50: Homo sapiens. As to the method:
Single agent EC50 values for Compound A were above 30 μM in both cell lines. […] Dose response curves were interpolated using GraphPad Prism 9 (FIG. 4A), and the synergy of drug combinations was analyzed with ComBenefit 2.02 (Table 4).
A general note: In ATP-based viability assays light output follows the ATP content of the culture.

In assay [2] the test system is DoTc2-4510 cells (cervical, BRCA2-mut.). Kind of assay: 10 days nuclear count viability, combination screen. The note with it: DoTc2-4510, 10 days nuclear count viability; Compound A and Niraparib combination. The assay is classed as cell-based.
For assay [3], the target named is Polθ (Rattus norvegicus, UniProt D4A628). Briefly: Polθ ATPase biochemical assay, rat. The settings on record: read-out: pIC50, inhibition of Polθ (converted). As to the method:
(§1) The ATPase activity of Polθ recombinant helicase domain was measured in an enzymatic activity assay. The production of ADP from ATP substrate was determined in a coupled enzyme assay linked to NAD+ production. The NAD+ production was measured by monitoring absorbance changes at 340 nm in a kinetic manner. Gradients of the rate plots were determined for each concentration of Compound A and expressed as % inhibition of enzyme activity.

Assay [4] has as its target Polθ (Canis lupus familiaris, UniProt A0A8I3S1N1). Briefly: Polθ ATPase biochemical assay, dog. The settings on record: read-out: pIC50, inhibition of Polθ (converted). As to the method: as §1
The mark [5] stands for this setting: PEO1, Compound A and Niraparib co-treatment.

SMILES strings stand for the structures. Where two headings read alike, the source gives them in different places.

The values that follow come from patent US12398131B2, “Thiadiazolyl derivatives as DNA polymerase theta inhibitors and uses thereof” (GlaxoSmithKline Intellectual Property (No.4) Limited, priority 2022, dated 2025).

The term EC50 denotes the concentration giving half of the maximal effect.

Sequence of Polθ (Canis lupus familiaris, UniProt A0A8I3S1N1) (A0A8I3S1N1 1-2595): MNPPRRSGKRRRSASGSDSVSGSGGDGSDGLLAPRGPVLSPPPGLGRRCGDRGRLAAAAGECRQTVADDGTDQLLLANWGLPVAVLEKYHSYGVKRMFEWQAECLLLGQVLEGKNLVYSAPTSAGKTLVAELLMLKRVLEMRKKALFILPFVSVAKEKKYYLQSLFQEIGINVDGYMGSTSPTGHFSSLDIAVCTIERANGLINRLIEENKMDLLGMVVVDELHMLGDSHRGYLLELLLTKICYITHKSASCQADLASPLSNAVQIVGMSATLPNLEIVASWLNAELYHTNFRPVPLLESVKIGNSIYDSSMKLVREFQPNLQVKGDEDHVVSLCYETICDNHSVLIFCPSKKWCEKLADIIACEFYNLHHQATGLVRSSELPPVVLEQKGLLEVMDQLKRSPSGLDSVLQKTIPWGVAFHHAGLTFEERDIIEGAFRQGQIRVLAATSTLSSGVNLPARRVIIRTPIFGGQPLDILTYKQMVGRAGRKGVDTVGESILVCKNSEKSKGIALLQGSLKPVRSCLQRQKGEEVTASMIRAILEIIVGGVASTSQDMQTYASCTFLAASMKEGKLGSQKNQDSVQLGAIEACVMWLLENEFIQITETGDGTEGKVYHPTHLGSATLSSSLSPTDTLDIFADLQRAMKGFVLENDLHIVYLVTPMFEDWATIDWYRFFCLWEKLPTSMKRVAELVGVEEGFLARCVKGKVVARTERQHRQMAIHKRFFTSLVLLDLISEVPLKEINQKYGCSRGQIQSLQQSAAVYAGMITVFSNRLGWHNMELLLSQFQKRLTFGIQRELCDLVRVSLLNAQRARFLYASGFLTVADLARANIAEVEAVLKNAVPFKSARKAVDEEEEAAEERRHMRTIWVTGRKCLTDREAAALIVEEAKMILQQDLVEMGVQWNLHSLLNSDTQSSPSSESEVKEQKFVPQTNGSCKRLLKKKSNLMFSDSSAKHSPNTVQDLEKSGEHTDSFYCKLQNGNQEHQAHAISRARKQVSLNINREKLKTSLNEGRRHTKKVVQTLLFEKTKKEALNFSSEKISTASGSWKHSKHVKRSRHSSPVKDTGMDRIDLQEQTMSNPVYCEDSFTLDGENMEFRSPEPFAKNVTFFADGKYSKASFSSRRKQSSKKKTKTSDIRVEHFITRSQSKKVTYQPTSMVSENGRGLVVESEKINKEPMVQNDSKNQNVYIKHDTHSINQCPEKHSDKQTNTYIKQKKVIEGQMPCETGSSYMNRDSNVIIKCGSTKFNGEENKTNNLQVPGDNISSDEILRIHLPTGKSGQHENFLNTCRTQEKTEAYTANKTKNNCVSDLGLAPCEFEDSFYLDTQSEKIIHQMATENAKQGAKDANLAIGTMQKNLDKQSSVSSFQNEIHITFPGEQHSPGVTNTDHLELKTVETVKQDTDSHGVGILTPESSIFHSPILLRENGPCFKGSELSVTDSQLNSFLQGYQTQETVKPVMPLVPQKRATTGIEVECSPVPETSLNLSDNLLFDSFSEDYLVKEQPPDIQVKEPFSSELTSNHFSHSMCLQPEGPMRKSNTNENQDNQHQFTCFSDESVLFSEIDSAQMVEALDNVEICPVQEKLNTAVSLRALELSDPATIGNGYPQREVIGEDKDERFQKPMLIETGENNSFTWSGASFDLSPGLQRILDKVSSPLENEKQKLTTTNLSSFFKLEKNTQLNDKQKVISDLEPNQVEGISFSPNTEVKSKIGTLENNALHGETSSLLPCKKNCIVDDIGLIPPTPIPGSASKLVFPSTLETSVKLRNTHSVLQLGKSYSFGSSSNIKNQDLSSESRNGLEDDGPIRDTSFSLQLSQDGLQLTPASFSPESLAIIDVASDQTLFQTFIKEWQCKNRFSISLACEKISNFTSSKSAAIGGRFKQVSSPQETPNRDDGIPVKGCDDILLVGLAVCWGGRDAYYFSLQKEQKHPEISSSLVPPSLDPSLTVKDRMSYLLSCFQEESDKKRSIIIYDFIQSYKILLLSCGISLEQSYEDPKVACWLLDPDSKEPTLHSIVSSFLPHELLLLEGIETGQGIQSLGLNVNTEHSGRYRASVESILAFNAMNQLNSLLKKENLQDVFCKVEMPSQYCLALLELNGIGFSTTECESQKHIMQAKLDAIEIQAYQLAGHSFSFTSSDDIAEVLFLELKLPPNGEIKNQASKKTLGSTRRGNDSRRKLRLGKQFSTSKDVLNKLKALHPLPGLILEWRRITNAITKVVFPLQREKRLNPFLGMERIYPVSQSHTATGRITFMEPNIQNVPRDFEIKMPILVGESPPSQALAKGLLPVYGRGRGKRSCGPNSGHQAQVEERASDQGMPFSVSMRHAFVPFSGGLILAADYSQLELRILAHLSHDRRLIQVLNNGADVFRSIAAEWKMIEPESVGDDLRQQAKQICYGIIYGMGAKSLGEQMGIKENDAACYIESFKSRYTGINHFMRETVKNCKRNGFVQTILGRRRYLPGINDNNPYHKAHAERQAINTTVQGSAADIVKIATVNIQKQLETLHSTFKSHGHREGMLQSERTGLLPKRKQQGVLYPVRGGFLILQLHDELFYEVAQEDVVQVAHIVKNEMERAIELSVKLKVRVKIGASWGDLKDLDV
Sequence of Polθ (Rattus norvegicus, UniProt D4A628) (D4A628 1-2547): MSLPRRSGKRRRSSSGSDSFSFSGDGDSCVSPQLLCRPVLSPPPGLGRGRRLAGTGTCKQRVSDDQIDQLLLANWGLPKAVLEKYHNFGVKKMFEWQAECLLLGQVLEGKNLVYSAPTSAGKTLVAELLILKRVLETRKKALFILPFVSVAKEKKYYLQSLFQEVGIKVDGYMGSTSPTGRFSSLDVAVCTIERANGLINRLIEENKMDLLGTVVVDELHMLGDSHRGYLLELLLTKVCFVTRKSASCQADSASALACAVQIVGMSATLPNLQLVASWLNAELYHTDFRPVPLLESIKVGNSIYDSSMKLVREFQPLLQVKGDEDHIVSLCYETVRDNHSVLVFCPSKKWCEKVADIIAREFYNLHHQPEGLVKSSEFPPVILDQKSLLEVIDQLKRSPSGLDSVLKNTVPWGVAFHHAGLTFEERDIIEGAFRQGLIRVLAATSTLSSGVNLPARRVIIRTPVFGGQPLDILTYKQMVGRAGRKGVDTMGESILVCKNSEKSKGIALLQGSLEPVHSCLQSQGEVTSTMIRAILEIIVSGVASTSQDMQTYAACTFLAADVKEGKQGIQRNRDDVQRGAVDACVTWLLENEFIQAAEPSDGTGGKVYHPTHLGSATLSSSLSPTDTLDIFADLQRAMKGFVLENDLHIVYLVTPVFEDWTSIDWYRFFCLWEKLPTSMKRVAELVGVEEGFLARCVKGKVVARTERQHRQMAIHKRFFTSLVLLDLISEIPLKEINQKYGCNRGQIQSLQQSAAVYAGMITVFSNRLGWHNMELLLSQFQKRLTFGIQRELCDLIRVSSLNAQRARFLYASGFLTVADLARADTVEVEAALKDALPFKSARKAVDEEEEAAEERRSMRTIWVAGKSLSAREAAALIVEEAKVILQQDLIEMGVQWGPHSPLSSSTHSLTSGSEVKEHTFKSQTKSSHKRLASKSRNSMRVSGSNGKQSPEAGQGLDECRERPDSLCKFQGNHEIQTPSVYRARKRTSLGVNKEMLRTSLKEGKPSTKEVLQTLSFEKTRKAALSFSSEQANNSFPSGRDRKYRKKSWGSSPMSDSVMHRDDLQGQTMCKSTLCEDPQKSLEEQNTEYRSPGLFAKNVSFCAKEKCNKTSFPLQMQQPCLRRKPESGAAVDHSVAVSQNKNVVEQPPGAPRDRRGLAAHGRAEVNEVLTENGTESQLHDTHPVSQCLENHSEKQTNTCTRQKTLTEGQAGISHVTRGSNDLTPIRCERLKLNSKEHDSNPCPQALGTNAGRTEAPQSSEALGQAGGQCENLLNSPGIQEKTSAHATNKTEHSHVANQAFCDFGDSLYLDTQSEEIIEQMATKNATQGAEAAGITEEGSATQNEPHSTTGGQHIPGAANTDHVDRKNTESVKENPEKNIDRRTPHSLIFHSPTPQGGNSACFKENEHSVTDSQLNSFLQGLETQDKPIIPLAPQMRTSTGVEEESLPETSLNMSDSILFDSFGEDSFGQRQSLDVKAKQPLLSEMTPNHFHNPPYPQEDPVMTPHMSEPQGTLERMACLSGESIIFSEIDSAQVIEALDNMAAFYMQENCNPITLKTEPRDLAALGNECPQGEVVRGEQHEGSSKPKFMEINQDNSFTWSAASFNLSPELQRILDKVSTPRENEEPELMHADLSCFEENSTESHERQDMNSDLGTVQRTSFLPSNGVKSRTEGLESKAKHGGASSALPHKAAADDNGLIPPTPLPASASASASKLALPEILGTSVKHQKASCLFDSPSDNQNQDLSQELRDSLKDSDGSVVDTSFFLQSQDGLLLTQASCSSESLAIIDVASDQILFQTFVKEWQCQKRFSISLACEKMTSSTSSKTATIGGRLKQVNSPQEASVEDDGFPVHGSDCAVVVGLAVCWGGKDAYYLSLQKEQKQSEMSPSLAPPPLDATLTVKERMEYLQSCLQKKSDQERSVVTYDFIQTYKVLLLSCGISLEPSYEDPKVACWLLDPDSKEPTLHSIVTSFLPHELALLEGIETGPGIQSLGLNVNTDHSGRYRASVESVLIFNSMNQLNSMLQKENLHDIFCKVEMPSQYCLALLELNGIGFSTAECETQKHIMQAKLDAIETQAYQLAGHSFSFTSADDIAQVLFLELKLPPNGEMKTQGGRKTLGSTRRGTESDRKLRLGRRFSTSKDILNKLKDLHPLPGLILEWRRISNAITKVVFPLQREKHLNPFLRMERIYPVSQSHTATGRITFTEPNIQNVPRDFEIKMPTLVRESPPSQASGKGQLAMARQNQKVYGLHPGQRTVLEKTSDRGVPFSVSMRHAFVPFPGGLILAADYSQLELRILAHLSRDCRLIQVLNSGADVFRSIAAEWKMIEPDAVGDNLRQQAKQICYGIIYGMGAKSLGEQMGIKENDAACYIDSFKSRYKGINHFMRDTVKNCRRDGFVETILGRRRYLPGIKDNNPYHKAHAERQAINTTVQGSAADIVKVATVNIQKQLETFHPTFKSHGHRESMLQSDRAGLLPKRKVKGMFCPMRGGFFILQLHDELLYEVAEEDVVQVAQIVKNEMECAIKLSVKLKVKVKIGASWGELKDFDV

`COc1nnc(NC(=O)c2cnc(C)cc2-c2cc(Cl)ncc2OC)s1` [Compound A, 2′-chloro-5′-methoxy-N-(5-methoxy-1,3,4-thiadiazol-2-yl)-6-methyl-(4,4′-bipyridine)-3-carboxamide]: the EC50 in assay [1] (PEO1, 168 h, PEO1, 7-day CTG, single agent, read-out: Single agent EC50) was greater than 30000 nM; in assay [1] (PEO1, PEO1, Niraparib 0 nM, read-out: Compound A EC50), greater than 30000 nM; in assay [1] (PEO1, PEO1, in combination with Niraparib 3 nM, read-out: Compound A EC50), 250 nM; in assay [1] (PEO1, PEO1, in combination with Niraparib 10 nM, read-out: Compound A EC50) it was 79 nM; in assay [1] (PEO1, PEO1, in combination with Niraparib 30 nM, read-out: Compound A EC50) it was 58 nM. The “Comb Benefit” value in assay [1] (PEO1, 7 days CTG, Compound A and Niraparib combination) was “Yes”; in assay [2] it was “Yes”. The “Synergy score (ComBenefit) Bliss” value in assay [1] (setting [5]) was 20. For the same molecule, the “Synergy score (ComBenefit) HAS” value in assay [1] (setting [5]) is given as 38. For the same molecule, the “Synergy score (ComBenefit) Loewe” value in assay [1] (setting [5]) was found to be 36. The IC50 is 10 nM on Polθ [3] and 15.8 nM at Polθ [4].
